Measurements: the supplement of paper PMC10307832

Key:
Assay in all cases: relative viability (nuclei count vs DMSO), 5 days (fraction); higher = more cells survive
NCI-H661 = test system: NCI-H661
In short: (§1)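 Cells from lung cancer lines were seeded into 1536-well plates and, one day later, dosed by pin tool. Treatments were either a single drug or a fixed dose of an anchor drug with five library-drug doses (not always all listed) in √10 steps. After 5 days, nuclei were stained in a one-step fixation (final 0.05% Triton X-100, 1% formaldehyde, 1 ug/ml Hoechst) and counted on 4× images, and relative viability is the treated-to-vehicle nuclei ratio, as the median of duplicate plates.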

NCI-H1355 = test system: NCI-H1355
In short: as §1

LOU-NH91 = test system: LOU-NH91
In short: as §1

HCC-827 = test system: HCC-827
In short: as §1

NCI-H2009 = test system: NCI-H2009
In short: as §1

NCI-H1734 = test system: NCI-H1734
In short: as §1

SK-MES-1 = test system: SK-MES-1
In short: as §1

SK-LU-1 = test system: SK-LU-1
In short: as §1

NCI-H2342 = test system: NCI-H2342
In short: as §1

EKVX = test system: EKVX
In short: as §1

NCI-H647 = test system: NCI-H647
In short: as §1

BEN = test system: BEN
In short: as §1

NCI-H1437 = test system: NCI-H1437
In short: as §1

NCI-H2405 = test system: NCI-H2405
In short: as §1

NCI-H2170 = test system: NCI-H2170
In short: as §1

NCI-H1395 = test system: NCI-H1395
In short: as §1

NCI-H1993 = test system: NCI-H1993
In short: as §1

NCI-H522 = test system: NCI-H522
In short: as §1

NCI-H1792 = test system: NCI-H1792
In short: as §1

HARA = test system: HARA
In short: as §1

HCC-366 = test system: HCC-366
In short: as §1

NCI-H2087 = test system: NCI-H2087
In short: as §1

CCN(CC)CCCCNc1ncc2cc(-c3cc(OC)cc(OC)c3)c(NC(=O)NC(C)(C)C)nc2n1 + N=C(N)NC(=N)NCCc1ccccc1 [Phenformin] (partner 250 µM)
relative viability (NCI-H661; first compound 0.01 µM): 0.289
relative viability (NCI-H661; first compound 0.03162 µM): 0.297
relative viability (NCI-H661; first compound 0.1 µM): 0.27
relative viability (NCI-H661; first compound 0.3162 µM): 0.291
relative viability (NCI-H661; first compound 1 µM): 0.278
relative viability (NCI-H1355; first compound 0.01 µM): 0.446
relative viability (NCI-H1355; first compound 0.03162 µM): 0.443
relative viability (NCI-H1355; first compound 0.1 µM): 0.468
relative viability (NCI-H1355; first compound 0.3162 µM): 0.501
relative viability (NCI-H1355; first compound 1 µM): 0.413
relative viability (LOU-NH91; first compound 0.01 µM): 0.572
relative viability (LOU-NH91; first compound 0.03162 µM): 0.683
relative viability (LOU-NH91; first compound 0.1 µM): 0.795
relative viability (LOU-NH91; first compound 0.3162 µM): 0.797
relative viability (LOU-NH91; first compound 1 µM): 0.713
relative viability (HCC-827; first compound 0.01 µM): 0.437
relative viability (HCC-827; first compound 0.03162 µM): 0.422
relative viability (HCC-827; first compound 0.1 µM): 0.417
relative viability (HCC-827; first compound 0.3162 µM): 0.467
relative viability (HCC-827; first compound 1 µM): 0.426
relative viability (NCI-H2009; first compound 0.01 µM): 0.471
relative viability (NCI-H2009; first compound 0.03162 µM): 0.462
relative viability (NCI-H2009; first compound 0.1 µM): 0.451
relative viability (NCI-H2009; first compound 0.3162 µM): 0.456
relative viability (NCI-H2009; first compound 1 µM): 0.357
relative viability (NCI-H1734; first compound 0.01 µM): 0.356
relative viability (NCI-H1734; first compound 0.03162 µM): 0.363
relative viability (NCI-H1734; first compound 0.1 µM): 0.384
relative viability (NCI-H1734; first compound 0.3162 µM): 0.364
relative viability (NCI-H1734; first compound 1 µM): 0.354
relative viability (SK-MES-1; first compound 0.01 µM): 0.706
relative viability (SK-MES-1; first compound 0.03162 µM): 0.673
relative viability (SK-MES-1; first compound 0.1 µM): 0.637
relative viability (SK-MES-1; first compound 0.3162 µM): 0.641
relative viability (SK-MES-1; first compound 1 µM): 0.483
relative viability (SK-LU-1; first compound 0.01 µM): 0.661
relative viability (SK-LU-1; first compound 0.03162 µM): 0.551
relative viability (SK-LU-1; first compound 0.1 µM): 0.681
relative viability (SK-LU-1; first compound 0.3162 µM): 0.586
relative viability (SK-LU-1; first compound 1 µM): 0.285
relative viability (NCI-H2342; first compound 0.01 µM): 0.578
relative viability (NCI-H2342; first compound 0.03162 µM): 0.582
relative viability (NCI-H2342; first compound 0.1 µM): 0.56
relative viability (NCI-H2342; first compound 0.3162 µM): 0.664
relative viability (NCI-H2342; first compound 1 µM): 0.648
relative viability (EKVX; first compound 0.01 µM): 0.223
relative viability (EKVX; first compound 0.03162 µM): 0.227
relative viability (EKVX; first compound 0.1 µM): 0.243
relative viability (EKVX; first compound 0.3162 µM): 0.258
relative viability (EKVX; first compound 1 µM): 0.248
relative viability (NCI-H647; first compound 0.01 µM): 0.451
relative viability (NCI-H647; first compound 0.03162 µM): 0.59
relative viability (NCI-H647; first compound 0.1 µM): 0.556
relative viability (NCI-H647; first compound 0.3162 µM): 0.804
relative viability (NCI-H647; first compound 1 µM): 0.239
relative viability (BEN; first compound 0.01 µM): 0.261
relative viability (BEN; first compound 0.03162 µM): 0.236
relative viability (BEN; first compound 0.1 µM): 0.278
relative viability (BEN; first compound 0.3162 µM): 0.464
relative viability (BEN; first compound 1 µM): 0.244
relative viability (NCI-H1437; first compound 0.01 µM): 0.29
relative viability (NCI-H1437; first compound 0.03162 µM): 0.298
relative viability (NCI-H1437; first compound 0.1 µM): 0.28
relative viability (NCI-H1437; first compound 0.3162 µM): 0.362
relative viability (NCI-H1437; first compound 1 µM): 0.257
relative viability (NCI-H2405; first compound 0.01 µM): 0.38
relative viability (NCI-H2405; first compound 0.03162 µM): 0.412
relative viability (NCI-H2405; first compound 0.1 µM): 0.518
relative viability (NCI-H2405; first compound 0.3162 µM): 0.427
relative viability (NCI-H2405; first compound 1 µM): 0.315
relative viability (NCI-H2170; first compound 0.01 µM): 0.417
relative viability (NCI-H2170; first compound 0.03162 µM): 0.416
relative viability (NCI-H2170; first compound 0.1 µM): 0.414
relative viability (NCI-H2170; first compound 0.3162 µM): 0.413
relative viability (NCI-H2170; first compound 1 µM): 0.345
relative viability (NCI-H1395; first compound 0.01 µM): 0.426
relative viability (NCI-H1395; first compound 0.03162 µM): 0.455
relative viability (NCI-H1395; first compound 0.1 µM): 0.451
relative viability (NCI-H1395; first compound 0.3162 µM): 0.431
relative viability (NCI-H1395; first compound 1 µM): 0.397
relative viability (NCI-H1993; first compound 0.01 µM): 0.501
relative viability (NCI-H1993; first compound 0.03162 µM): 0.512
relative viability (NCI-H1993; first compound 0.1 µM): 0.554
relative viability (NCI-H1993; first compound 0.3162 µM): 0.492
relative viability (NCI-H1993; first compound 1 µM): 0.514
relative viability (NCI-H522; first compound 0.01 µM): 0.726
relative viability (NCI-H522; first compound 0.03162 µM): 0.768
relative viability (NCI-H522; first compound 0.1 µM): 0.582
relative viability (NCI-H522; first compound 0.3162 µM): 0.688
relative viability (NCI-H522; first compound 1 µM): 0.633
relative viability (NCI-H1792; first compound 0.01 µM): 0.363
relative viability (NCI-H1792; first compound 0.03162 µM): 0.43
relative viability (NCI-H1792; first compound 0.1 µM): 0.312
relative viability (NCI-H1792; first compound 0.3162 µM): 0.232
relative viability (NCI-H1792; first compound 1 µM): 0.168
relative viability (HARA; first compound 0.01 µM): 0.49
relative viability (HARA; first compound 0.03162 µM): 0.504
relative viability (HARA; first compound 0.1 µM): 0.489
relative viability (HARA; first compound 0.3162 µM): 0.395
relative viability (HARA; first compound 1 µM): 0.364
relative viability (HCC-366; first compound 0.01 µM): 0.627
relative viability (HCC-366; first compound 0.03162 µM): 0.666
relative viability (HCC-366; first compound 0.1 µM): 0.65
relative viability (HCC-366; first compound 0.3162 µM): 0.622
relative viability (HCC-366; first compound 1 µM): 0.581
relative viability (NCI-H2087; first compound 0.01 µM): 0.42
relative viability (NCI-H2087; first compound 0.03162 µM): 0.537
relative viability (NCI-H2087; first compound 0.1 µM): 0.536
relative viability (NCI-H2087; first compound 0.3162 µM): 0.522
relative viability (NCI-H2087; first compound 1 µM): 0.429
